Data from PubChem BioAssay (NCI).
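Grown in 96-well plates, cells were treated for 48 hours with each compound at five concentrations. Insufficient inhibition: endpoint recorded as highest concentration tested. GI50: concentration for 50% inhibition of growth. Definition used: TGI = concentration required for complete inhibition of growth.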

What was measured:
Test in all cases: NCI anticancer screen, dose series, 48 h
A498 renal = test system: A498 renal
ACHN renal = test system: ACHN renal
BT-549 breast = test system: BT-549 breast
CAKI-1 renal = test system: CAKI-1 renal
CCRF-CEM leukemia = test system: CCRF-CEM leukemia
DU-145 prostate = test system: DU-145 prostate
EKVX NSCLC = test system: EKVX NSCLC
HCT-15 colon = test system: HCT-15 colon
HL-60(TB) leukemia = test system: HL-60(TB) leukemia
HOP-92 NSCLC = test system: HOP-92 NSCLC
HT29 colon = test system: HT29 colon
IGROV1 ovarian = test system: IGROV1 ovarian
KM12 colon = test system: KM12 colon
MALME-3M melanoma = test system: MALME-3M melanoma
MDA-MB-435 = test system: MDA-MB-435
MOLT-4 leukemia = test system: MOLT-4 leukemia
NCI-H226 lung = test system: NCI-H226 lung
NCI-H23 lung = test system: NCI-H23 lung
NCI-H460 lung = test system: NCI-H460 lung
NCI-H522 lung = test system: NCI-H522 lung
OVCAR-4 ovarian = test system: OVCAR-4 ovarian
OVCAR-5 ovarian = test system: OVCAR-5 ovarian
OVCAR-8 ovarian = test system: OVCAR-8 ovarian
PC-3 prostate = test system: PC-3 prostate
SF-268 CNS = test system: SF-268 CNS
SF-295 CNS = test system: SF-295 CNS
SF-539 CNS = test system: SF-539 CNS
SK-MEL-28 melanoma = test system: SK-MEL-28 melanoma
SK-MEL-5 melanoma = test system: SK-MEL-5 melanoma
SK-OV-3 ovarian = test system: SK-OV-3 ovarian
SN12C renal = test system: SN12C renal
SNB-75 CNS = test system: SNB-75 CNS
SW-620 colon = test system: SW-620 colon
T-47D breast = test system: T-47D breast
TK-10 renal = test system: TK-10 renal
UACC-62 melanoma = test system: UACC-62 melanoma
HCT-116 colon = test system: HCT-116 colon
HS 578T breast = test system: HS 578T breast
K-562 leukemia = test system: K-562 leukemia
M14 melanoma = test system: M14 melanoma
MCF7 breast = test system: MCF7 breast
MDA-MB-231 breast = test system: MDA-MB-231 breast
NCI/ADR-RES ovarian = test system: NCI/ADR-RES ovarian
RPMI-8226 leukemia = test system: RPMI-8226 leukemia
SK-MEL-2 melanoma = test system: SK-MEL-2 melanoma
SR leukemia = test system: SR leukemia
UACC-257 melanoma = test system: UACC-257 melanoma

## Clc1cc(Cl)cc(N2N=C(c3cccc(Nc4ccncc4)c3)CC2c2ccccc2)c1 (stereo not drawn)
A498 renal
  GI50: 1.81 µM
  TGI: 4.42 µM
ACHN renal
  GI50: 1.9 µM
  TGI: 3.89 µM
BT-549 breast
  GI50: 6.23 µM
  TGI: 28.4 µM
CAKI-1 renal
  GI50: 1.57 µM
  TGI: 3.36 µM
CCRF-CEM leukemia
  GI50: 2.92 µM
  TGI: > 100 µM
DU-145 prostate
  GI50: 2.54 µM
  TGI: 6.51 µM
EKVX NSCLC
  GI50: 1.7 µM
  TGI: 4.23 µM
HCT-15 colon
  GI50: 1.66 µM
  TGI: 3.31 µM
HL-60(TB) leukemia
  GI50: 1.9 µM
  TGI: 5.2 µM
HOP-92 NSCLC
  GI50: 1.49 µM
  TGI: 3.07 µM
HT29 colon
  GI50: 1.8 µM
  TGI: 3.73 µM
IGROV1 ovarian
  GI50: 1.54 µM
  TGI: 3.04 µM
KM12 colon
  GI50: 1.86 µM
  TGI: 3.7 µM
MALME-3M melanoma
  GI50: 1.67 µM
  TGI: 3.16 µM
MDA-MB-435
  GI50: 1.72 µM
  TGI: 3.36 µM
MOLT-4 leukemia
  GI50: 2.29 µM
  TGI: 5.95 µM
NCI-H226 lung
  GI50: 14 µM
  TGI: 38.7 µM
NCI-H23 lung
  GI50: 1.81 µM
  TGI: 3.91 µM
NCI-H460 lung
  GI50: 1.8 µM
  TGI: 3.37 µM
NCI-H522 lung
  GI50: 1.79 µM
  TGI: 3.6 µM
OVCAR-4 ovarian
  GI50: 1.86 µM
  TGI: 3.87 µM
OVCAR-5 ovarian
  GI50: 2.56 µM
  TGI: 8.74 µM
OVCAR-8 ovarian
  GI50: 2.07 µM
  TGI: 4.56 µM
PC-3 prostate
  GI50: 1.87 µM
  TGI: 5.15 µM
SF-268 CNS
  GI50: 1.99 µM
  TGI: 4.63 µM
SF-295 CNS
  GI50: 1.65 µM
  TGI: 3.08 µM
SF-539 CNS
  GI50: 1.72 µM
  TGI: 3.2 µM
SK-MEL-28 melanoma
  GI50: 1.76 µM
  TGI: 3.21 µM
SK-MEL-5 melanoma
  GI50: 1.78 µM
  TGI: 3.23 µM
SK-OV-3 ovarian
  GI50: 13.1 µM
  TGI: 31.9 µM
SN12C renal
  GI50: 1.66 µM
  TGI: 3.12 µM
SNB-75 CNS
  GI50: 1.45 µM
  TGI: 5.38 µM
SW-620 colon
  GI50: 1.85 µM
  TGI: 3.73 µM
T-47D breast
  GI50: 1.73 µM
  TGI: 4.2 µM
TK-10 renal
  GI50: 2.02 µM
  TGI: 3.98 µM
UACC-62 melanoma
  GI50: 1.74 µM
  TGI: 3.24 µM

## COc1cc(/C=C2\CCCC3=C2NC(N)=NC3c2cc(OC)c(OC)c(OC)c2)cc(OC)c1OC (stereo not drawn)
CAKI-1 renal
  GI50: 1.44 µM
  TGI: 7.69 µM
CCRF-CEM leukemia
  GI50: 0.419 µM
  TGI: 7.31 µM
DU-145 prostate
  GI50: 3.36 µM
  TGI: > 100 µM
EKVX NSCLC
  GI50: 3.12 µM
  TGI: > 100 µM
HCT-116 colon
  GI50: 0.551 µM
  TGI: 1.97 µM
HL-60(TB) leukemia
  GI50: 2.6 µM
  TGI: > 100 µM
HOP-92 NSCLC
  GI50: 1.58 µM
  TGI: 5.74 µM
HS 578T breast
  GI50: 0.554 µM
  TGI: 7.62 µM
IGROV1 ovarian
  GI50: 3.35 µM
  TGI: > 100 µM
K-562 leukemia
  GI50: 2.15 µM
  TGI: > 100 µM
M14 melanoma
  GI50: 0.633 µM
  TGI: 2.91 µM
MALME-3M melanoma
  GI50: 1.92 µM
  TGI: 5.47 µM
MCF7 breast
  GI50: 1.49 µM
  TGI: > 100 µM
MDA-MB-231 breast
  GI50: 3.87 µM
  TGI: > 100 µM
MDA-MB-435
  GI50: 0.422 µM
  TGI: > 100 µM
MOLT-4 leukemia
  GI50: 1.69 µM
  TGI: 5.83 µM
NCI/ADR-RES ovarian
  GI50: 0.29 µM
  TGI: > 100 µM
OVCAR-4 ovarian
  GI50: 1.7 µM
  TGI: > 100 µM
OVCAR-8 ovarian
  GI50: 0.298 µM
  TGI: 12.1 µM
PC-3 prostate
  GI50: 1.93 µM
  TGI: > 100 µM
RPMI-8226 leukemia
  GI50: 0.291 µM
  TGI: 1.79 µM
SF-268 CNS
  GI50: 2.42 µM
  TGI: > 100 µM
SF-539 CNS
  GI50: 3.27 µM
  TGI: > 100 µM
SK-MEL-2 melanoma
  GI50: 2.08 µM
  TGI: 4.83 µM
SK-OV-3 ovarian
  GI50: 3.43 µM
  TGI: > 100 µM
SN12C renal
  GI50: 1.62 µM
  TGI: > 100 µM
SNB-75 CNS
  GI50: 8.02 µM
  TGI: > 100 µM
SR leukemia
  GI50: 0.51 µM
  TGI: 3.74 µM
SW-620 colon
  GI50: 1.08 µM
  TGI: 3.51 µM
TK-10 renal
  GI50: 3.24 µM
  TGI: 7.23 µM
UACC-257 melanoma
  GI50: 1.25 µM
  TGI: 4.35 µM

## CCCCCCCCCCCCCCCCCCOc1ccccc1CC(=O)OCC[N+](C)(C)C
ACHN renal
  GI50: 1.75 µM
  TGI: 3.72 µM
DU-145 prostate
  GI50: 1.71 µM
  TGI: 3.09 µM
EKVX NSCLC
  GI50: 2.17 µM
  TGI: 5.4 µM
HCT-15 colon
  GI50: 2.94 µM
  TGI: 11.5 µM
MDA-MB-231 breast
  GI50: 1.57 µM
  TGI: 3.21 µM
NCI/ADR-RES ovarian
  GI50: 9.84 µM
  TGI: 35.7 µM
OVCAR-5 ovarian
  GI50: 1.45 µM
  TGI: 2.89 µM
SF-295 CNS
  GI50: 2.03 µM
  TGI: 4.52 µM
SK-MEL-28 melanoma
  GI50: 1.63 µM
  TGI: 3.57 µM
T-47D breast
  GI50: 2.06 µM
  TGI: 4.89 µM
UACC-257 melanoma
  GI50: 2.34 µM
  TGI: 6.34 µM
UACC-62 melanoma
  GI50: 1.57 µM
  TGI: 3.51 µM
